# Source: ChEMBL document CHEMBL5550219, “Distinct Amino Acid-Based PROTACs Target Oncogenic Kinases for Degradation in Non-Small Cell Lung Cancer (NSCLC)” (J Med Chem, 2024)
# pIC50: −log10 of the molar value. Active and inactive are the calls of the source. The calls are words filed in the database; no cut-off is given here.
# What was measured:
# [1] = tested on: NCI-H3122; test: Effect on EML4-ALK expression in human NCI-H3122 cells upto 20 uM incubated for 72 hrs by immunoblot analysis; type: functional, cell-based
# [2] = tested on: Protein zyg-11 homolog B/Protein zer-1 homolog/Epidermal growth factor receptor (Homo sapiens), P00533+Q9C0D3+Q7Z7L7 [L858R,T790M]; test: PROTAC (AATac) activity at ZYG11B/ZER1/EGFR L858R/T790M mutant in human NCI-H1975 cells assessed as protein degradation upto 20 uM incubated for 72 hrs by immunoblot analysis; type: cell-based
# [3] = tested on: A549; test: Effect on wild-type EGFR expression in human A549 cells upto 20 uM incubated for 72 hrs by immunoblot analysis; type: functional, cell-based
# [4] = tested on: NCI-H1299; test: Effect on wild-type EGFR expression in human NCI-H1299 cells upto 20 uM incubated for 72 hrs by immunoblot analysis; type: functional, cell-based
# [5] = tested on: PC-9; test: Effect on EGFR del19 mutant expression in human PC-9 cells upto 20 uM incubated for 72 hrs by immunoblot analysis; type: functional, cell-based
# [6] = target: T1, ZYG11B/ZER1/EML4-ALK (Homo sapiens, UniProt Q9UM73+Q9HC35+Q9C0D3+Q7Z7L7); test: PROTAC (AATac) activity at ZYG11B/ZER1/EML4-ALK in human NCI-H3122 cells assessed as protein degradation upto 20 uM incubated for 72 hrs by immunoblot analysis; type: cell-based
# [7] = target: T1, ZYG11B/ZER1/EML4-ALK; test: PROTAC (AATac) activity at ZYG11B/ZER1/EML4-ALK in human NCI-H3122 cells assessed as protein degradation incubated for 48 to 72 hrs by immunoblot analysis; type: cell-based
# [8] = target: T1, ZYG11B/ZER1/EML4-ALK; test: PROTAC (AATac) activity at ZYG11B/ZER1/EML4-ALK in human NCI-H3122 cells assessed as protein degradation at 10 uM incubated for 48 to 72 hrs by immunoblot analysis relative to control; type: cell-based; conditions: time 48-72 hrs
# [9] = target: Protein zyg-11 homolog B/Protein zer-1 homolog/Epidermal growth factor receptor (Homo sapiens, UniProt P00533+Q9C0D3+Q7Z7L7, T790M/L858R); test: PROTAC (AATac) activity at ZYG11B/ZER1/EGFR L858R/T790M mutant in human NCI-H1975 cells assessed as protein degradation incubated for 48 to 72 hrs by immunoblot analysis; type: cell-based
# [10] = tested on: Protein zyg-11 homolog B/Protein zer-1 homolog/Epidermal growth factor receptor (Homo sapiens), P00533+Q9C0D3+Q7Z7L7 [L858R,T790M]; test: PROTAC (AATac) activity at ZYG11B/ZER1/EGFR L858R/T790M mutant in human NCI-H1975 cells assessed as protein degradation at 20 uM incubated for 48 to 72 hrs by immunoblot analysis relative to control; type: cell-based; conditions: time 48-72 hrs
# [11] = tested on: NCI-H3122; test: Inhibition of cell viability in human NCI-H3122 cells incubated for 48 to 72 hrs by CCK8 assay
# [12] = tested on: NCI-H1975; test: Inhibition of cell viability in human NCI-H1975 cells incubated for 48 to 72 hrs by CCK8 assay
# [13] = target: T1, ZYG11B/ZER1/EML4-ALK; test: PROTAC (AATac) activity at ZYG11B/ZER1/EML4-ALK in human NCI-H3122 cells assessed as protein degradation at 10 uM incubated for […] by immunoblot analysis; type: cell-based
# [14] = tested on: Protein zyg-11 homolog B/Protein zer-1 homolog/Epidermal growth factor receptor (Homo sapiens), P00533+Q9C0D3+Q7Z7L7 [L858R,T790M]; test: PROTAC (AATac) activity at ZYG11B/ZER1/EGFR L858R/T790M mutant in human NCI-H1975 cells assessed as protein degradation at 20 uM incubated for 24 hrs by immunoblot analysis; type: cell-based
# [15] = target: T1, ZYG11B/ZER1/EML4-ALK; test: PROTAC (AATac) activity at ZYG11B/ZER1/EML4-ALK in human NCI-H3122 cells harboring shZYG11B assessed as protein degradation incubated for 24 hrs by immunoblot analysis; type: cell-based
# [16] = tested on: Protein zyg-11 homolog B/Protein zer-1 homolog/Epidermal growth factor receptor (Homo sapiens), P00533+Q9C0D3+Q7Z7L7 [L858R,T790M]; test: PROTAC (AATac) activity at ZYG11B/ZER1/EGFR L858R/T790M mutant in human NCI-H1975 cells harboring shZYG11B assessed as protein degradation incubated for 72 hrs by immunoblot analysis; type: cell-based
# [17] = target: T1, ZYG11B/ZER1/EML4-ALK; test: PROTAC (AATac) activity at ZYG11B/ZER1/EML4-ALK in human NCI-H3122 cells harboring shZER1 assessed as protein degradation incubated for 24 hrs by immunoblot analysis; type: cell-based
# [18] = tested on: Protein zyg-11 homolog B/Protein zer-1 homolog/Epidermal growth factor receptor (Homo sapiens), P00533+Q9C0D3+Q7Z7L7 [L858R,T790M]; test: PROTAC (AATac) activity at ZYG11B/ZER1/EGFR L858R/T790M mutant in human NCI-H1975 cells harboring shZER1 assessed as protein degradation incubated for 72 hrs by immunoblot analysis; type: cell-based
# [19] = tested on: NCI-H3122; test: Antitumor activity against human NCI-H3122 cells xenografted in nude mouse assessed as reduction in ALK level at 10 mg/kg, ip measured after 24 hrs by immunoblot analysis; type: functional, organism-based
# [20] = tested on: UBR/Epidermal growth factor receptor (Homo sapiens), P00533+Q5T4S7+Q8IWV7+Q8IWV8 [L858R,T790M]; test: PROTAC (AATac) activity at UBR1/2/4/EGFR L858R/T790M mutant in human NCI-H1975 cells assessed as protein degradation upto 20 uM incubated for 72 hrs by immunoblot analysis; type: cell-based
# [21] = target: T2, UBR/ALK tyrosine kinase receptor/Echinoderm microtubule-associated protein-like 4 (Homo sapiens) (UniProt Q9UM73+Q9HC35+Q5T4S7+Q8IWV7+Q8IWV8); test: PROTAC (AATac) activity at UBR1/2/4/EML4-ALK in human NCI-H3122 cells assessed as protein degradation upto 20 uM incubated for 72 hrs by immunoblot analysis; type: cell-based
# [22] = target: UBR/ALK tyrosine kinase receptor/Echinoderm microtubule-associated protein-like 4; test: PROTAC (AATac) activity at UBR1/2/4/EML4-ALK in human NCI-H3122 cells assessed as protein degradation incubated for 48 to 72 hrs by immunoblot analysis; type: cell-based
# [23] = target: T2, UBR/ALK tyrosine kinase receptor/Echinoderm microtubule-associated protein-like 4 (Homo sapiens); test: PROTAC (AATac) activity at UBR1/2/4/EML4-ALK in human NCI-H3122 cells assessed as protein degradation at 10 uM incubated for 48 to 72 hrs by immunoblot analysis relative to control; type: cell-based; conditions: time 48-72 hrs
# [24] = target: UBR/Epidermal growth factor receptor (Homo sapiens, UniProt P00533+Q5T4S7+Q8IWV7+Q8IWV8, T790M/L858R); test: PROTAC (AATac) activity at UBR1/2/4/EGFR L858R/T790M mutant in human NCI-H1975 cells assessed as protein degradation incubated for 48 to 72 hrs by immunoblot analysis; type: cell-based
# [25] = tested on: UBR/Epidermal growth factor receptor (Homo sapiens), P00533+Q5T4S7+Q8IWV7+Q8IWV8 [L858R,T790M]; test: PROTAC (AATac) activity at UBR1/2/4/EGFR L858R/T790M mutant in human NCI-H1975 cells assessed as protein degradation at 20 uM incubated for 48 to 72 hrs by immunoblot analysis relative to control; type: cell-based; conditions: time 48-72 hrs
# [26] = target: T2, UBR/ALK tyrosine kinase receptor/Echinoderm microtubule-associated protein-like 4 (Homo sapiens); test: PROTAC (AATac) activity at UBR1/2/4/EML4-ALK in human NCI-H3122 cells assessed as protein degradation at 10 uM incubated for approximately 3 hrs by immunoblot analysis; type: cell-based
# [27] = tested on: UBR/Epidermal growth factor receptor (Homo sapiens), P00533+Q5T4S7+Q8IWV7+Q8IWV8 [L858R,T790M]; test: PROTAC (AATac) activity at UBR1/2/4/EGFR L858R/T790M mutant in human NCI-H1975 cells assessed as protein degradation at 20 uM incubated for 48 hrs by immunoblot analysis; type: cell-based
# [28] = tested on: Epidermal growth factor receptor (Homo sapiens), P00533 [L858R,T790M]; test: Induction of EGFR L858R/T790M mutant degradation in human NCI-H1975 cells harboring sgGID4 at 1 to 20 uM incubated for 24 hrs by immunoblot analysis; type: cell-based; conditions: dose 1-20 µM
# [29] = tested on: Epidermal growth factor receptor (Homo sapiens), P00533 [L858R,T790M]; test: Inhibition of EGFR L858R/T790M mutant phosphorylation in human NCI-H1975 cells harboring sgGID4 at 1 to 20 uM incubated for 24 hrs by immunoblot analysis; type: cell-based; conditions: dose 1-20 µM
# [30] = tested on: NCI-H3122; test: Inhibition of EML4-ALK phosphorylation in human NCI-H3122 cells at 2.5 uM incubated for 48 hrs followed by compound removal and incubation in drug-free medium for 12 to 72 hrs by immunoblot analysis; type: cell-based
# [31] = tested on: Glucose-induced degradation protein 4 homolog/Epidermal growth factor receptor (Homo sapiens), P00533+Q8IVV7 [L858R,T790M]; test: Inhibition of EGFR L858R/T790M mutant phosphorylation in human NCI-H1975 cells at 20 uM incubated for 72 hrs followed by compound removal and incubation in drug-free medium for 12 to 72 hrs by immunoblot analysis; type: cell-based
structure (smiles),measurement,setting,value
COc1cc(N2CCN(C(=O)CCOCCOCCOCCNC(=O)[C@@H](N)CCCN)CC2)ccc1Nc1ncc(Cl)c(Nc2ccccc2P(C)(C)=O)n1,Activity,[1],inactive
COc1cc(N2CCN(C(=O)CCOCCOCCOCCNC(=O)CN)CC2)ccc1Nc1ncc(Cl)c(Nc2ccccc2P(C)(C)=O)n1,Activity,[2],Active
same,Activity,[3],inactive
same,Activity,[4],inactive
same,Activity,[5],inactive
same,Activity,[6],Active
same,DC50,[7],0.5 µM
same,Emax,[8],98%
same,DC50,[9],20.1 µM
same,Activity,[10],43%
same,pIC50,[11],6.08
same,pIC50,[12],4.68
same,Activity,[13],Active
same,Activity,[14],Active
same,Activity,[15],inactive
same,Activity,[16],inactive
same,Activity,[17],inactive
same,Activity,[18],inactive
same,Activity,[19],Active
COc1cc(N2CCN(C(=O)CCOCCOCCOCCNC(=O)[C@@H](N)CCCCN)CC2)ccc1Nc1ncc(Cl)c(Nc2ccccc2P(C)(C)=O)n1,Activity,[20],Active
same,Activity,[3],inactive
same,Activity,[4],inactive
same,Activity,[5],inactive
same,Activity,[21],Active
same,DC50,[22],1.32 µM
same,Emax,[23],91%
same,DC50,[24],19.7 µM
same,Activity,[25],52%
same,pIC50,[11],5.28
same,pIC50,[12],4.73
same,Activity,[26],Active
same,Activity,[27],Active
COc1cc(N2CCNCC2)ccc1Nc1ncc(Cl)c(Nc2ccccc2P(C)(C)=O)n1,Activity,[1],inactive
same,pIC50,[11],6.52
same,pIC50,[12],6.06
same,Activity,[28],inactive
same,Activity,[29],inactive
same,inhibition,[30],inactive
same,inhibition,[31],inactive
